The values below come from patent US10787435B2, “ASK1 inhibitor and preparation method and use thereof” (FUJIAN COSUNTER PHARMACEUTICAL CO., LTD., priority 2017, dated 2020).

One data set concerns the target ASK1/MAP3K5 (Homo sapiens (Human), UniProt Q99683). As to the kind of experiment: Evaluation of in vitro enzyme activity (33P-ATP radiometric kinase assay, MBP substrate). In kind it is biochemical. The following applies: recombinant human full length GST-tagged ASK1 20 nM, MBP 20 μM. The method, then:
Example 1: Evaluation of In Vitro Enzyme Activity
Base Reaction Buffer: 20 mM Hepes (pH 7.5), 10 mM MgCl2, 1 mM EGTA, 0.02% Brij35, 0.02 mg/ml BSA, 0.1 mM Na3VO4, 2 mM DTT, 1% DMSO
The test compound was formulated into a 10 mM stock solution in DMSO, which was diluted into 10 concentrations in 3-fold degression, and placed in a 384-well plate (Cyclic Olefin Copolymer LDV Echo®).
Kinase Name: ASK1/MAP3K5 (Invitrogen, Carlsbad, Calif.)
Type: Recombinant Human Full Length Protein, GST-tagged
Final concentration of the enzyme: 20 nM
Substrate: Myelin basic protein, MBP (Active Motif, Carlsbad, Calif.)
Final concentration of the substrate: 20 μM
1. The substrate was dissolved in a freshly prepared base reaction buffer.
2. A desired coenzyme was added to the above substrate solution.
3. The kinase was added to the substrate solution and mixed slowly.
4. The solution of the test compound in DMSO was added to the kinase reaction solution and incubated at room temperature for 20 minutes.
5. ^33P-ATP (specific activity of 10 μCi/μl) was added to the reaction solution to initiate the reaction.
6. Incubated at room temperature for 2 hours.
7. A small portion of the reactants was placed onto a P-81 ion exchange filter paper.
8. The filter paper was washed three times with 0.75% […] to wash off the unbound phosphate, and then the filter paper was dried.
9. The radioactivity remaining on the filter paper was determined.
10. Kinase activity data was expressed as the ratio of the kinase activity remaining in the test sample to the kinase activity in the vehicle (DMSO).
11. IC50 values and curve fits was obtained with Prism (GraphPad software).

Data set [1] is described as follows: Studies on pharmacokinetic properties in mice (plasma concentration by LC-MS/MS). In kind it is in vivo. The following applies: C57BL/6 male mice, dose not stated; for Exposure: intravenous or oral administration; for bioavailability: mouse, po, intragastric vs tail vein. The method, then:
Example 2: Studies on Pharmacokinetic Properties
C57BL/6 male mice were used as subject animals in the study. The concentration of the drug in the plasma of mice injected intravenously or administrated orally with the test compound was quantified at different time points by using a LC/MS/MS method to evaluate the pharmacokinetic characteristics of the test drug in mice.
A clear solution of the test compound was injected into C57BL/6 mice (overnight-fasted, 7-10 weeks old) via the tail vein, and the test compound was intragastrically administered to C57BL/6 mice (overnight-fasted, 7-10 weeks old). Approximately 30 μL of blood was collected from each animal via the jugular vein or tail vein at 0.0833, 0.25, 0.5, 1, 2, 4, 6, 8 and 24 hours after administration, and placed in an anticoagulant tube supplemented with EDTA-K2. Centrifuged at 3000 g at 4° C. for 15 min, and the plasma was collected. The plasma concentration was determined by LC-MS/MS. The pharmacokinetic parameters were calculated by using the non-compartment model and linear logarithmic trapezoidal method using the pharmacokinetic software WinNonlin™ Version 6.3 (Pharsight, Mountain View, Calif.).

ASK1/MAP3K5, sequence (Q99683 whole entry): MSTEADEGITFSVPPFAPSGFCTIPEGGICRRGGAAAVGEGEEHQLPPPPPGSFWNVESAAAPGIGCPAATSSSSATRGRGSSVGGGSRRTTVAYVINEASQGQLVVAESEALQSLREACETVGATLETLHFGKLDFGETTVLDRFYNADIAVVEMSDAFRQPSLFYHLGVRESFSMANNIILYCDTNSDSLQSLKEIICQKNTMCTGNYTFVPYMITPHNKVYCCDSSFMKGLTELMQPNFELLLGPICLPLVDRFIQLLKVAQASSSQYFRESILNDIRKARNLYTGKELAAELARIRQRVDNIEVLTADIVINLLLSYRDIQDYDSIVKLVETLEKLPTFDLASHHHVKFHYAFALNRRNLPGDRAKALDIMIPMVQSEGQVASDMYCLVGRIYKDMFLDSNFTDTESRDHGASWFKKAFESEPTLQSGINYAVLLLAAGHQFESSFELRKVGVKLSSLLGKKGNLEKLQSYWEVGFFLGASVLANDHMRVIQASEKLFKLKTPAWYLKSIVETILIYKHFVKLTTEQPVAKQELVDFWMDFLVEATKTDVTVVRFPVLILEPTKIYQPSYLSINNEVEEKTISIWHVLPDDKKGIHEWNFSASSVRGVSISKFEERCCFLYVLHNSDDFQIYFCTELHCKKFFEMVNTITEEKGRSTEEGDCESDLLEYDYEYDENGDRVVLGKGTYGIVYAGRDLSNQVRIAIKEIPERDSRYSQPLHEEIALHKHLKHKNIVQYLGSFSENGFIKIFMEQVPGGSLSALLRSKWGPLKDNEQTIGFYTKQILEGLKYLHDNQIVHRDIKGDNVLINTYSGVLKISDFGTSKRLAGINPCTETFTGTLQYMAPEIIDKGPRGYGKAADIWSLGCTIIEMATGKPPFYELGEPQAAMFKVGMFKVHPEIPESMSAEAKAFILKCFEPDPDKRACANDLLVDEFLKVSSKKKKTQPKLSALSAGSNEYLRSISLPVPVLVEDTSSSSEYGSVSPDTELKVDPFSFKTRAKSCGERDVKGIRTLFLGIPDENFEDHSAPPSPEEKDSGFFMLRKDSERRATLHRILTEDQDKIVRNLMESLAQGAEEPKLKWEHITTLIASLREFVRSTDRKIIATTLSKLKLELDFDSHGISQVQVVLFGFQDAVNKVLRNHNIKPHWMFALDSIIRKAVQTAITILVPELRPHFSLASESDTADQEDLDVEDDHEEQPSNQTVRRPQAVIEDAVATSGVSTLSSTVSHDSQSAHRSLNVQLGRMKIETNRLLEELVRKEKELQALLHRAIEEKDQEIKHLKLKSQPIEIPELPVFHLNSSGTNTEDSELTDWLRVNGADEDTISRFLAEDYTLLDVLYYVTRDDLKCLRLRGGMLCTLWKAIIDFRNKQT

By IC50 is commonly meant the concentration at which inhibition is half-maximal. On to `COCCOc1cc2ncn(-c3cccc(-c4nncn4C(C)C)n3)c(=O)c2cc1-n1cnc(C2CC2)c1` [Example 035], for which the 50% inhibitory concentration (IC50) on ASK1/MAP3K5 is at most 0.05 µM.
On the same count and under the same terms, in the case of `Cc1cc2ncn(-c3cccc(-c4nncn4C(C)C)n3)c(=O)c2cc1-c1ccc(C(C)C)nc1` [Example 052] it was at most 0.05 µM; in that of `Cc1ccc(-c2cc3ncn(-c4cccc(-c5nncn5C(C)C)n4)c(=O)c3cc2-n2cnc(C3CC3)c2)cn1` [Example 032], at most 0.05 µM.
Still for that read-out and setting: the result for `CC(C)n1cnnc1-c1cccc(N2Cc3ccc(-n4cnc(C5CC5)c4)cc3C2=O)n1` [Example 005] reads at most 0.05 µM; that for `O=C1c2cc(-n3cnc4c3CCCC4)ccc2CCN1c1cccc(-c2nnc3n2CCCC3)n1` [Example 010], 0.05 to 1 µM.
Same read-out and setting: in the case of `CC(C)n1cnnc1-c1cccc(-n2ccc3ccc(-n4cnc(C5CC5)c4)cc3c2=O)n1` [Example 004] it was at most 0.05 µM; in that of `Cc1cc2ncn(-c3cccc(-c4nncn4C4CCOCC4)n3)c(=O)c2cc1-n1cnc(C2CC2)c1` [Example 048], 0.05 to 1 µM.
On to `Cc1cc2c(cc1-n1cnc(C3CC3)c1)C(=O)N(c1cccc(-c3nnc4n3CCC4)n1)CC2` [Example 008], for which, at ASK1/MAP3K5, the half-maximal inhibitory concentration (IC50) is at most 0.05 µM. Also, in data set [1], the Exposure was 103.95 µM·h and the bioavailability came to 98.5%.
For the compound `CCc1cc2ncn(-c3cccc(-c4nncn4C(C)C)n3)c(=O)c2cc1-n1cnc(C2CC2)c1` [Example 022], the half-inhibitory concentration (IC50) on ASK1/MAP3K5 is at most 0.05 µM.
For the compound `CC(C)n1cnnc1-c1cccc(-n2cnc3cc(OCCO)c(-n4cnc(C5CC5)c4)cc3c2=O)n1` [Example 041], the half-maximal inhibitory concentration (IC50) at ASK1/MAP3K5 was at most 0.05 µM.
With `COc1ccc(-c2cc3ncn(-c4cccc(-c5nncn5C(C)C)n4)c(=O)c3cc2-n2cnc(C3CC3)c2)cn1` [Example 033], the IC50 at ASK1/MAP3K5 is at most 0.05 µM. Besides, in data set [1], the Exposure was determined as 20.356 µM·h and the bioavailability turned out to be 148%.
As for `Cc1cc2ncn(-c3cccc(-c4nncn4C4CCCC4)n3)c(=O)c2cc1-n1cnc(C2CC2)c1` [Example 044], the IC50 on ASK1/MAP3K5 was at most 0.05 µM.
With `Cc1cc2c(F)cn(-c3cccc(-c4nnc5n4CCCC5)n3)c(=O)c2cc1-n1cnc(C2CC2)c1` [Example 017], the concentration for half-maximal inhibition (IC50) at ASK1/MAP3K5 lay in the range of 0.05 to 1 µM.
`Cc1cc2ncn(-c3cccc(-c4nncn4C4CC4)n3)c(=O)c2cc1-n1cnc(C2CC2)c1` [Example 018]: the IC50 at ASK1/MAP3K5 was at most 0.05 µM. Besides, in data set [1], the Exposure turned out to be 59.568 µM·h and the bioavailability worked out at 111%.
`Cc1cc2ncn(-c3cccc(-c4nncn4C4CCCCC4)n3)c(=O)c2cc1-n1cnc(C2CC2)c1` [Example 051]: at ASK1/MAP3K5, the IC50 was at most 0.05 µM.
Still for that read-out and setting: in the case of `CC(C)n1cnnc1-c1cccc(-n2cnc3cc(OCCCS(C)(=O)=O)c(-n4cnc(C5CC5)c4)cc3c2=O)n1` [Example 040] it was at most 0.05 µM.
Take `Cc1cc2c(F)cn(-c3cccc(-c4nncn4C(C)C)n3)c(=O)c2cc1-n1cnc(C2CC2)c1` [Example 007]: the IC50 at ASK1/MAP3K5 was at most 0.05 µM. Moreover, in data set [1], the Exposure is 29.007 µM·h and the bioavailability came to 123%.
For `CC(C)n1cnnc1-c1cccc(-n2cc(F)c3ccc(-n4cnc(C5CC5)c4)cc3c2=O)n1` [Example 003] the same measures were at most 0.05 µM, 66.259 µM·h and 214%.
As for `Cc1cc2ncn(-c3cccc(-c4nnc(C)n4C)n3)c(=O)c2cc1-n1cnc(C2CC2)c1` [Example 015], the IC50 on ASK1/MAP3K5 was over 1 µM.
The same measure, in the same setting: the result for `CC(C)n1cnnc1-c1cccc(-n2cnc3cc(-c4ccc(N)nc4)c(-n4cnc(C5CC5)c4)cc3c2=O)n1` [Example 034] reads at most 0.05 µM; that for `CNC(=O)COc1cc2ncn(-c3cccc(-c4nncn4C(C)C)n3)c(=O)c2cc1-n1cnc(C2CC2)c1` [Example 039], at most 0.05 µM.
Same read-out and setting: the result for `COc1cc2ncn(-c3cccc(-c4nncn4C(C)C)n3)c(=O)c2cc1-n1cnc(C2CC2)c1` [Example 031] reads at most 0.05 µM.
Still for that read-out and setting: the result for `CC(C)n1cnnc1-c1cccc(-n2cnc3cc(Cl)c(-n4cnc(C5CC5)c4)cc3c2=O)n1` [Example 021] reads at most 0.05 µM.
For the compound `Cc1nc(C2CC2)cn1-c1ccc2c(c1)C(=O)N(c1cccc(-c3nnc4n3CCCC4)n1)CC2` [Example 012], the IC50 at ASK1/MAP3K5 was over 1 µM.
On to `CC(C)n1cnnc1-c1cccc(-n2cnc3cc(OCC(N)=O)c(-n4cnc(C5CC5)c4)cc3c2=O)n1` [Example 038], for which, at ASK1/MAP3K5, the half-inhibitory concentration (IC50) is at most 0.05 µM.
For the compound `Cc1cc2ncn(-c3cccc(-c4nnc5n4CCC5)n3)c(=O)c2cc1-n1cnc(C2CC2)c1` [Example 028], the 50% inhibitory concentration (IC50) at ASK1/MAP3K5 lay in the range of 0.05 to 1 µM.
Same read-out and setting: in the case of `Cc1cc2ncn(-c3cccc(-c4nnc(C)n4C(C)C)n3)c(=O)c2cc1-n1cnc(C2CC2)c1` [Example 016] it was 0.05 to 1 µM; in that of `Cc1cc2ncn(-c3cccc(-c4nnc5n4CCCC5)n3)c(=O)c2cc1-n1cnc(C2CC2)c1` [Example 014], 0.05 to 1 µM.
Same read-out and setting: the result for `Cc1cc2ncn(-c3cccc(-c4nncn4C(C)C)c3)c(=O)c2cc1-n1cnc(C2CC2)c1` [Example 043] reads over 1 µM.
Consider `Cc1cc2ncn(-c3csc(-c4nncn4C(C)C)c3)c(=O)c2cc1-n1cnc(C2CC2)c1` [Example 042], for which, at ASK1/MAP3K5, the IC50 is over 1 µM.
Same read-out and setting: in the case of `Cc1cc2ncn(-c3cccc(-c4nncn4CC(F)(F)F)n3)c(=O)c2cc1-n1cnc(C2CC2)c1` [Example 019] it was at most 0.05 µM.
Consider `CC(C)n1cnnc1-c1cccc(-n2cnc3cc(-c4ccccc4)c(-n4cnc(C5CC5)c4)cc3c2=O)n1` [Example 023], for which the 50% inhibitory concentration (IC50) at ASK1/MAP3K5 is at most 0.05 µM.
As for `CC(C)n1cnnc1-c1cccc(-n2cnc3cc(O)c(-n4cnc(C5CC5)c4)cc3c2=O)n1` [Example 037], the IC50 at ASK1/MAP3K5 was at most 0.05 µM.
The same measure, in the same setting: in the case of `CC(C)n1cnnc1-c1cccc(-n2cnc3cc(-c4cccnc4)c(-n4cnc(C5CC5)c4)cc3c2=O)n1` [Example 024] it was at most 0.05 µM; in that of `CC(C)n1cnnc1-c1cccc(-n2cnc3cc(OCCCF)c(-n4cnc(C5CC5)c4)cc3c2=O)n1` [Example 054], at most 0.05 µM.
The same measure, in the same setting: the result for `Cc1nnc(-c2cccc(-n3cnc4cc(C)c(-n5cnc(C6CC6)c5)cc4c3=O)n2)o1` [Example 020] reads over 1 µM.
Consider `CC(C)n1cnnc1-c1cccc(-n2cnc3cc(-c4ccsc4)c(-n4cnc(C5CC5)c4)cc3c2=O)n1` [Example 025], for which the IC50 at ASK1/MAP3K5 is at most 0.05 µM.
Consider `Cc1cc2ncn(-c3cccc(-c4nncn4C(C)C)n3)c(=O)c2cc1-n1cnc(C2CC2)c1` [Example 011], for which the IC50 at ASK1/MAP3K5 is at most 0.05 µM. Further, in data set [1], the Exposure was found to be 31.832 µM·h and the bioavailability turned out to be 108%.
Consider `Cc1cc2ncn(-c3cccc(-c4nncn4C4CCC(F)(F)CC4)n3)c(=O)c2cc1-n1cnc(C2CC2)c1` [Example 049], for which the IC50 at ASK1/MAP3K5 fell in the range of 0.05 to 1 µM.
Consider `CC(C)n1cnnc1-c1cccc(-n2cnc3ccc(-n4cnc(C5CC5)c4)cc3c2=O)n1` [Example 013], for which, on ASK1/MAP3K5, the half-maximal inhibitory concentration (IC50) was at most 0.05 µM.
Still for that read-out and setting: the result for `COc1nc2cc(C)c(-n3cnc(C4CC4)c3)cc2c(=O)n1-c1cccc(-c2nncn2C(C)C)n1` [Example 029] reads over 1 µM; that for `Cc1cc2ncn(-c3csc(-c4nncn4C(C)C)n3)c(=O)c2cc1-n1cnc(C2CC2)c1` [Example 046], at most 0.05 µM.
On the same count and under the same terms, in the case of `Cc1cc2ncn(-c3cccc(-c4nncn4C(C)CO)n3)c(=O)c2cc1-n1cnc(C2CC2)c1` (centres unmarked) [Example 057] it was at most 0.05 µM.
The same measure, in the same setting: the result for `Cc1cc2ccn(-c3cccc(-c4nncn4C(C)C)n3)c(=O)c2cc1-n1cnc(C2CC2)c1` [Example 006] reads at most 0.05 µM.
Turning to `CC(C)n1cnnc1-c1cccc(-n2cnc3cc(N4CCOCC4)c(-n4cnc(C5CC5)c4)cc3c2=O)n1` [Example 056], the half-maximal inhibitory concentration (IC50) on ASK1/MAP3K5 is at most 0.05 µM.
As to `Cc1cc2ncn(-c3cccc(-c4nncn4C(C)C)n3)c(=O)c2cc1-n1cnc(-c2ccccc2)c1` [Example 050], the 50% inhibitory concentration (IC50) on ASK1/MAP3K5 was at most 0.05 µM.
On the same count and under the same terms, in the case of `Cc1cc2ncn(-c3cccc(-c4nncn4C(C)(C)C)n3)c(=O)c2cc1-n1cnc(C2CC2)c1` [Example 047] it was at most 0.05 µM; in that of `CCC(CC)n1cnnc1-c1cccc(-n2cnc3cc(C)c(-n4cnc(C5CC5)c4)cc3c2=O)n1` [Example 045], at most 0.05 µM.
Still for that read-out and setting: in the case of `CC(C)n1cnnc1-c1cccc(-n2cnc3cc(N(C)C)c(-n4cnc(C5CC5)c4)cc3c2=O)n1` [Example 055] it was at most 0.05 µM; in that of `CC(C)n1cnnc1-c1cccc(-n2cnc3cc(OCC4COC4)c(-n4cnc(C5CC5)c4)cc3c2=O)n1` [Example 058], at most 0.05 µM.
